Like-named read-outs stand apart in the source and are kept apart here.
Experiments:
[1] = Standard cell-based assay; settings: read-out: Cell-based assay (IC50 ± sd)
[2] = target: T1, M2/M1 (hRRM2 and hRRM1 reconstituted RNR) (Homo sapiens, UniProt P31350); test: In vitro RNR activity assay with reconstituted hRRM2/hRRM1 ([3H]CDP reduction); format: biochemical; settings: read-out: In vitro RR activity (IC50 ± sd) M2/M1
T1 construct: 6xHis; made in house
T1 sequence (P31350 1-389): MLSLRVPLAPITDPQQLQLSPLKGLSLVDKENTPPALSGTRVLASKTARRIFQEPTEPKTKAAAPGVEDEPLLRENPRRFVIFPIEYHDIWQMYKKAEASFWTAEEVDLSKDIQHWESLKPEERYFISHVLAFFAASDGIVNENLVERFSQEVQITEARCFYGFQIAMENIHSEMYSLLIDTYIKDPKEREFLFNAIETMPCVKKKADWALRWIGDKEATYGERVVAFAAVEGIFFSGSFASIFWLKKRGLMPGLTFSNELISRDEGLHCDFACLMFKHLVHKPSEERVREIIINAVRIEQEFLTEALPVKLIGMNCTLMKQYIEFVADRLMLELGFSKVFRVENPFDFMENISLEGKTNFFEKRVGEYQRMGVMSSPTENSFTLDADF
Experimental: (§1) To reconstitute an active RNR, three 6′His-tag human RNR subunit proteins (hRRM2, p53R2, and hRRM1) were prokaryotically expressed, purified using Ni-resin affinity chromatography, and stored in 50 mM Tris-HCl, pH 7.4, 100 mM KCl at −70° C. according to standard techniques. The purified proteins were subjected to SDS-PAGE analysis. […] To reconstitute RNR, 1 μM of hRRM2 or p53R2 protein was incubated with 0.5 μM hRRM1 protein in multiple-well plates. The reconstitute RNR was tested for RNR activity according to standard techniques.
(§2) Each compound of various concentration was mixed with the purified hRRM2 and hRRM1, or p53R2 and hRRM1 at room temperature for 30 minutes. An enzymatic reaction buffer was then added to the mixture to reach a final volume of 100 μl and incubated at 37° C. for 30 minutes. The reaction buffer contained […] [^3H] CDP, 50 mM HEPES pH 7.2,6 mM DTT, 4 mM MgOAC, 2 mM ATP, 0.05 mM CDP, 100 mM KCl, and 0.24 mM NADPH. […] FeCl3 could be added to the buffer as an iron source. After dephosphorylation, the supernatant of each reaction mixture was analyzed by an HPLC-connected radioactivity detector. IC50 values were calculated by the non-linear regression equations: f (x)=(a-d)/[1+(x/c)^b]+d.

[3] = target: T2, p53R2/M1 (p53R2 and hRRM1 reconstituted RNR) (Homo sapiens, UniProt Q7LG56); test: In vitro RNR activity assay with reconstituted p53R2/hRRM1 ([3H]CDP reduction); format: biochemical; settings: read-out: In vitro RR activity (IC50 ± sd) p53R2/M1
T2 construct: 6xHis; made in house
T2 sequence (Q7LG56 1-351): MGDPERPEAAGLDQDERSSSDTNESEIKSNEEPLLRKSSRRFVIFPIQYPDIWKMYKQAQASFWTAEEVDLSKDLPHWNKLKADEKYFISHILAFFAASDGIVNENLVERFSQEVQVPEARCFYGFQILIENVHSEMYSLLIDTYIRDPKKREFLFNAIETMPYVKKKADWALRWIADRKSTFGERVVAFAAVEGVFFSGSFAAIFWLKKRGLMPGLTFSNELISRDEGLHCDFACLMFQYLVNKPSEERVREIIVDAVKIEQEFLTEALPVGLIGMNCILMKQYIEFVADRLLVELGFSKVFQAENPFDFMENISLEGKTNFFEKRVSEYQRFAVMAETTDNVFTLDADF
Experimental: as §1, §2

[4] = test system: T3, RNR containing hRRM2 or p53R2; test: In vitro RNR activity assay, both reconstituted RNRs compared (average, selective index, comparison in words); format: biochemical, human; settings: average of M2/M1 and p53R2/M1, read-out: In vitro RR activity (IC50) Average
T3 construct: In vitro RR activity (IC50) Average; other: compound in 1% DMSO; average of M2/M1 and p53R2/M1; other: compound in 2.5% DMSO; other: compound in dH2O + FeCl3; other: compound in dH2O; Inhi; fused on or other part: 6xHis tag on each subunit
Experimental: as §1, §2
(§3) The above-described four SB-HSCs were tested for their inhibitory potency and subunit-selectivity by the in vitro RNR assay in the same manner descried above. The dose-dependent inhibition curves were found.

[5] = test system: RNR containing hRRM2 or p53R2; test: as above; format: biochemical, human; settings: for Selective index: M2/M1 versus p53R2/M1
Experimental: as §1, §2, §3

human RNR = target: T4, human RNR (Homo sapiens, UniProt P23921); test: C-terminal RRM2 peptide added to the enzyme in vitro; format: biochemical; settings: added in vitro at a ratio of 10:1 (peptide:enzyme)
T4 sequence (P23921 1-792): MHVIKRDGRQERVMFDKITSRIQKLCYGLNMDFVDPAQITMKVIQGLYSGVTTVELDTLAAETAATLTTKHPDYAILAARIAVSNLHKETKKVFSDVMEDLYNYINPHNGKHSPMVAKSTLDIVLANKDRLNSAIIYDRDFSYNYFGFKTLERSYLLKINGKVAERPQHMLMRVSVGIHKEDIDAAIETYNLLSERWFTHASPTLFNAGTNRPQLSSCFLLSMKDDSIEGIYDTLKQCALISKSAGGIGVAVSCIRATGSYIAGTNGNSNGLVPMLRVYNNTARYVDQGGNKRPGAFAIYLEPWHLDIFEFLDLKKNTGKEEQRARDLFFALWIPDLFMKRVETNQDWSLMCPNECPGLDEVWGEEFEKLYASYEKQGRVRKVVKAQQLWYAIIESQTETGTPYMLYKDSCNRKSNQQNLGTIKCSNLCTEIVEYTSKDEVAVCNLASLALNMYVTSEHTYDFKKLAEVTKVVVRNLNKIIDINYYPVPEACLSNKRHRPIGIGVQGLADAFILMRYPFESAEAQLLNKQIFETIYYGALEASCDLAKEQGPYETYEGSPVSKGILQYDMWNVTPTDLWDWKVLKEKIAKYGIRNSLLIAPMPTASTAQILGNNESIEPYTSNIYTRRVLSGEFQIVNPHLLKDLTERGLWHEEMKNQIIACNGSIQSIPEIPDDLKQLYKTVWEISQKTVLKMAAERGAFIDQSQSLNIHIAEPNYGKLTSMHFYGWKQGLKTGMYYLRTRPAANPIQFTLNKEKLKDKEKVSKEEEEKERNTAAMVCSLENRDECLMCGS
Text: Also within the scope of this invention is a pharmaceutical composition that contains (1) an active agent, e.g., one of the above-descried antibodies, RNR mutant subunits, RNAi agents, or compounds identified to be RNR inhibitors; and (2) a pharmaceutically acceptable carrier and. Other active agents that can be used include an antisense oligonucleotide and a peptide or polypeptide containing an amino acid sequence at the C-terminus of RRM2. […] It was further observed that a truncated form of the M2 subunit, lacking these 7 amino acids at the C-terminus, fails to form a complex with the corresponding large subunit M1. […] Such peptides or polypeptides can be generated and used according to the methods described above or any other methods well known in the art. The efficacy of the pharmaceutical composition for treating a cell proliferation-associated disorder can be preliminarily evaluated in vitro. For in vivo studies, the composition can be injected into an animal and its therapeutic effects are then accessed.

| Compound | IC50 [1] [µM] | IC50 ([2]; compound in 2.5% DMSO) [µM] | IC50 ([3]; compound in 2.5% DMSO) [µM] | IC50 ([4]; compound in 2.5% DMSO) [µM] | Small subunit selectivity of RNR inhibition (in words) [5] | Selective index ([5]; compound in 2.5% DMSO) | IC50 ([2]; compound in 1% DMSO) [µM] | IC50 ([3]; compound in 1% DMSO) [µM] | IC50 ([4]; compound in 1% DMSO) [µM] | Selective index ([5]; compound in 1% DMSO) | Suppression of human RNR activity (human RNR) |
| --- | --- | --- | --- | --- | --- | --- | --- | --- | --- | --- | --- |
| O=C(NO)NN=Cc1ccc([N+](=O)[O-])s1 [SB-HSC24] | 10.6 ± 0.3 | 52 ± 2.03 | 11.5 ± 0.6 | 31.7 | significantly more efficient in inactivating p53R2 | 4.53 |  |  |  |  |  |
| O=C(NO)NN=Cc1ccc(O)c(O)c1O [SB-HSC21] | 2.7 ± 0.6 |  |  |  | almost the same inhibitory activities on both small subunits |  | 11.5 ± 0.63 | 13.6 ± 0.7 | 12.5 | 0.85 |  |
| Cc1c2ccccc2c(C=NNC(=O)NO)c2ccccc12 [SB-HSC29] | 4.4 | > 250 | > 250 | > 250 |  |  |  |  |  |  |  |
| FTLDADF [7-amino acid peptide (FTLDADF) at the C-terminus of RRM2] |  |  |  |  |  |  |  |  |  |  | dramatically suppress the human RNR activity |
| O=C(NO)NN=Cc1cc(Cl)cc(Cl)c1O [SB-HSC2] | 6.5 ± 0.6 | 111 ± 6.64 | 30.6 ± 1.62 | 70.7 | significantly more efficient in inactivating p53R2 | 3.62 |  |  |  |  |  |

Reference: patent publication US20050260637A1, “Drug screening” (priority 2004, published 2005)
